Patent US10421784B2, “Cell penetrating peptides for intracellular delivery of molecules” (AADIGEN, LLC, priority 2012, dated 2019)
Read-outs that look alike come from different tables or passages of the source. Blank lines part the entries; values can stand above or below the compound they belong to.

What was measured:
[1] = Fluorescence titration, VEPEP-9/cargo binding; settings: cargo SHM
Method: (§1) Fluorescence experiments were performed on a PTI spectrofluorimeter at 25° C. in a NaCl 154 mM buffer. Intrinsic Trp-fluorescence of VEPEP-9 was excited at 290 nm and emission spectrum was recorded between 310 and 400 nm, with a spectral band-pass of 2 and 8 nm for excitation and emission, respectively. FITC- or CY5-fluorescence of labelled-peptide or Oligonucleotide were excited at 492 nm and emission recorded between 500 and 580 nm. For VEPEP-9/peptide interaction, 0.5 μM of FITC-labelled peptide was titrated by increasing concentrations of VEPEP-9. For VEPEP-9/oligonucleotide interaction, 200 nM of FITC or CY5-labelled oligodeoxynucleotide (ODN) was titrated by increasing concentrations of VEPEP-9. All measurements were corrected for the dilution and curve fitting were performed by using Grafit software (Erithacus).
(§2) VEPEP-9 peptide form stable complexes with peptides and ODN. The binding of cargos to VEPEP-9 was monitored by fluorescence spectroscopy using the both intrinsic Trp group of VEPEP-9 (3 to 5 Trp-residues) and extrinsic fluorescently labelled cargoes (using Cy3, Cy5 or FITC). Curve fitting reveal that VEPEP-9 strongly binds the different cargoes with dissociation constant in the nanomolar range (Tables 1 and 2 and FIG. 2).
(§3) VEPEP-9 peptides form stable particles with different cargoes including peptide, siRNA, PNA and small aromatic (FIG. 2). The dissociation constant for peptide, siRNA, PNA and small hydrophobic molecule ranges between 10-100 nM, 5-50 nM, 5-50 nM and 0.02 to 0.2 μM, respectively, depending on the nature of the dyes and of the cargoes.

PNA (15 mer -PNA) = assay: Fluorescence titration, VEPEP-9/cargo binding; settings: cargo PNA (15 mer)
Method: as §1, §2, §3

Peptide (C4) = assay: Fluorescence titration, VEPEP-9/cargo binding; settings: cargo peptide (C4)
Method: as §1, §2, §3

siRNA = assay: Fluorescence titration, VEPEP-9/cargo binding; settings: cargo siRNA
Method: as §1, §2, §3

[2] = Fluorescence titration, VEPEP-9/SHM binding
Method: as §1
Binding of small molecule cargoes has been investigated in detailed depending on the nature of the SHM. Several hydrophobic molecules have been used (Daunomycin, Paclitaxel, doxorubicin, porphyrin), as well as charged molecules (nucleotide, nucleoside and fluorescent dyes).

CEM-SS [3] = assay: Uptake of Cy-5 labelled small peptide (FACS); assay type: cell-based, Human
Method: (§4) Adherent HS68 fibroblasts, HeLa, PC3, MCF-7, SCK3-Her2, PBMC cell lines (from American Type Culture Collection (ATCC)) were cultured in Dulbecco's Modified Eagle's Medium supplemented with 2 mM glutamine, 1% antibiotics (streptomycin 10,000 μg/ml, penicillin, 10,000 IU/ml) and 10% (w/v) foetal calf serum (FCS), at 37° C. in a humidified atmosphere containing 5% CO2. Stock solutions of VEPEP-9/peptide particles were prepared by complexing 1 μM peptide with VEPEP-9 peptides at a molar ratio of 1/20 for 30 min at 37° C. Lower concentrations of VEPEP-9-carrier/peptide (from 500 nM to 1 μM) were obtained by serial dilution of the stock complexes in PBS, in order to preserve the same VEPEP-9-carrier/peptide ratio. Stock solutions of VEPEP-9/siRNA particles were prepared by complexing 100 nM siRNA with VEPEP-9 peptides at a molar ratio of 1/20 for 30 min at 37° C. Lower concentrations of VEPEP-9/siRNA (from 20 nM to 0.125 nM) were obtained by serial dilution of the stock complexes in PBS, in order to preserve the same VEPEP-9/siRNA ratio. 150,000 cells seeded in a 35 mm dish the day prior transfection, were grown to 60% confluence and overlaid with 200 μl of preformed complexes, incubated for 3-5 min, then 400 μl of DMEM were added. After 30 min. incubation at 37° C., 1 ml of fresh DMEM containing 16% foetal calf serum (FCS) was added in order to reach a final FCS concentration of 10%, without removing the overlay of VEPEP-9/cargo complexes. Cells were returned to the incubator for 24 hrs. For cdk2 derived peptides, cell proliferation was monitored after 24 and 48 hrs. For siRNA targeting Cyclin B1, Cyclin B1 mRNA level was determined 24 hrs following transduction, using Quantigen (Pommies Inc.). Data reported are an average of 3 or 4 distinct experiments.
(§5) VEPEP-9a, VEPEP-9c and VEPEP-9f have been used for the delivery of small peptides into different cell lines, including primary cell lines, stem cell lines and challenging cell lines. Cargoes uptake was monitored using fluorescence spectroscopy and FACS analysis. Fluorescently labelled peptides were visualized in the different cell lines using fluorescence microscopy or FACS sorting (Table 4). In most of the cell lines, the uptake of Cy-5 labelled peptide is more than 70% of the cells.

HS-68 [4] = assay: Uptake of Cy-5 labelled small peptide (FACS); assay type: cell-based, Human
Method: as §4, §5

Hela [5] = assay: Uptake of Cy-5 labelled small peptide (FACS); assay type: cell-based, Human
Method: as §4, §5

HepG2 [6] = assay: Uptake of Cy-5 labelled small peptide (FACS); assay type: cell-based, Human
Method: as §4, §5

Jurkat [7] = assay: Uptake of Cy-5 labelled small peptide (FACS); assay type: cell-based, Human
Method: as §4, §5

MCF7 [8] = assay: Uptake of Cy-5 labelled small peptide (FACS); assay type: cell-based, Human
Method: as §4, §5

MT4 [9] = assay: Uptake of Cy-5 labelled small peptide (FACS); assay type: cell-based, Human
Method: as §4, §5

U2OS [10] = assay: Uptake of Cy-5 labelled small peptide (FACS); assay type: cell-based, Human
Method: as §4, §5

C2C12 [11] = assay: Uptake of Cy-5 labelled small peptide (FACS); assay type: cell-based, Mouse
Method: as §4, with “Cells were returned to the incubator for 24 hrs.” left out, “Data reported are an average of 3 or 4 distinct experiments.” left out
as §5, with “In most of the cell lines, the uptake of Cy-5 labelled peptide is more than 70% of the cells.” left out

MEF [12] = assay: Uptake of Cy-5 labelled small peptide (FACS); assay type: cell-based, Mouse
Method: as §4, with “Cells were returned to the incubator for 24 hrs.” left out, “Data reported are an average of 3 or 4 distinct experiments.” left out
as §5, with “In most of the cell lines, the uptake of Cy-5 labelled peptide is more than 70% of the cells.” left out

STEM [13] = assay: Uptake of Cy-5 labelled small peptide (FACS); assay type: cell-based, Mouse
Method: as §4, with “Cells were returned to the incubator for 24 hrs.” left out, “Data reported are an average of 3 or 4 distinct experiments.” left out
as §5, with “In most of the cell lines, the uptake of Cy-5 labelled peptide is more than 70% of the cells.” left out

CEM-SS [14] = assay: Uptake of Cy-5 labelled PNA (FACS); assay type: cell-based, Human
From the text: (§6) VEPEP-9 peptides have been used for the delivery of nucleic acid analogues (PNA and morpholino) into different cell lines, including primary cell lines and challenging cell lines. […] Uptake was monitored using fluorescence spectroscopy and following biological response (Cyclin B1 knockdown).
(§7) Fluorescently labelled PNA was visualized in the different cell lines using fluorescence microscopy or FACS sorting (Table 5). In most of the cell lines, the uptake of Cy-5 labelled PNA is more than 60% of the cells.

HS-68 [15] = assay: Uptake of Cy-5 labelled PNA (FACS); assay type: cell-based, Human
From the text: as §6, §7

Hela [16] = assay: Uptake of Cy-5 labelled PNA (FACS); assay type: cell-based, Human
From the text: as §6, §7

HepG2 [17] = assay: Uptake of Cy-5 labelled PNA (FACS); assay type: cell-based, Human
From the text: as §6, §7

Jurkat [18] = assay: Uptake of Cy-5 labelled PNA (FACS); assay type: cell-based, Human
From the text: as §6, §7

MCF7 [19] = assay: Uptake of Cy-5 labelled PNA (FACS); assay type: cell-based, Human
From the text: as §6, §7

MT4 [20] = assay: Uptake of Cy-5 labelled PNA (FACS); assay type: cell-based, Human
From the text: as §6, §7

U2OS [21] = assay: Uptake of Cy-5 labelled PNA (FACS); assay type: cell-based, Human
From the text: as §6, §7

C2C12 [22] = assay: Uptake of Cy-5 labelled PNA (FACS); assay type: cell-based, Mouse
From the text: as §6, §7

MEF [23] = assay: Uptake of Cy-5 labelled PNA (FACS); assay type: cell-based, Mouse
From the text: as §6, §7

STEM [24] = assay: Uptake of Cy-5 labelled PNA (FACS); assay type: cell-based, Mouse
From the text: as §6, §7

cultured cells = assay: Cell cycle progression / cyclin B1 levels in cultured cells; assay type: cell-based; settings: carrier alone (200 μM)
SKB3 = assay: Inhibition of cancer cell proliferation by delivered drugs; assay type: cell-based; settings: drug complexed with VEPEP-9f at molar ratio 1/20, read-out: VEPEP-9f IC50
MCF7 [25] = assay: as above; assay type: cell-based; settings: Homo sapiens
[26] = test system: SKB3-HEK2 xenografted mice; assay: Survival after intravenous NANOPEP-9/doxorubicin; assay type: in vivo; settings: free Doxo (20 mg/Kg), intravenous every 4 days
Method: NANOPEP-9 peptides (VEPEP-9a, b, d, f variants) have been used for the delivery of doxorubicin in vivo. The potential of NANOPEP-9 to deliver doxorubicin in vivo was evaluated on SKB3-HEK2 xenografted mice. Doxorubicin was complexed with VEPEP-9 peptide at a molar ratio of 1/20 with NANOPEP-9a, NANOPEP-9f and NANOPEP-9a-PEG. The treatment was started 10 days after tumor inoculation and with 2 mg/kg and 10 mg/Kg doses of drug and injected every 4 days by systemic Intravenous administration and mice were monitored for survival (FIG. 15).

Binding [1]: Yes
Kd [1]: 20 to 100 nM
Binding (PNA (15 mer -PNA)): Yes
Kd (PNA (15 mer -PNA)): > 50 nM
Binding (Peptide (C4)): yes
Binding (siRNA): yes
Kd (siRNA): > 200 nM
Binding ([2]; cargo AZT): No
Binding ([2]; cargo Doxorubicin): yes
Binding ([2]; cargo FAM-guanosine): yes
Kd ([2]; cargo FAM-guanosine): 800 nM
Binding ([2]; cargo porphyrin): yes
Kd ([2]; cargo porphyrin): 110 nM
Compound: X1WWRWWAPWARSWWR [VEPEP-9f, X1 is beta-A or S]
Efficiency (uptake of Cy-5 labelled small peptide) (CEM-SS [3]): 87%
Efficiency (uptake of Cy-5 labelled small peptide) (HS-68 [4]): 67%
Efficiency (uptake of Cy-5 labelled small peptide) (Hela [5]): 60%
Efficiency (uptake of Cy-5 labelled small peptide) (HepG2 [6]): 48%
Efficiency (uptake of Cy-5 labelled small peptide) (Jurkat [7]): 65%
Efficiency (uptake of Cy-5 labelled small peptide) (MCF7 [8]): 89%
Efficiency (uptake of Cy-5 labelled small peptide) (MT4 [9]): 56%
Efficiency (uptake of Cy-5 labelled small peptide) (U2OS [10]): 57%
Efficiency (uptake of Cy-5 labelled small peptide) (C2C12 [11]): 57%
Efficiency (uptake of Cy-5 labelled small peptide) (MEF [12]): 75%
Efficiency (uptake of Cy-5 labelled small peptide) (STEM [13]): 76%
Efficiency (uptake of Cy-5 labelled PNA) (CEM-SS [14]): 78%
Efficiency (uptake of Cy-5 labelled PNA) (HS-68 [15]): 71%
Efficiency (uptake of Cy-5 labelled PNA) (Hela [16]): 78%
Efficiency (uptake of Cy-5 labelled PNA) (HepG2 [17]): 71%
Efficiency (uptake of Cy-5 labelled PNA) (Jurkat [18]): 81%
Efficiency (uptake of Cy-5 labelled PNA) (MCF7 [19]): 83%
Efficiency (uptake of Cy-5 labelled PNA) (MT4 [20]): 67%
Efficiency (uptake of Cy-5 labelled PNA) (U2OS [21]): 89%
Efficiency (uptake of Cy-5 labelled PNA) (C2C12 [22]): 69%
Efficiency (uptake of Cy-5 labelled PNA) (MEF [23]): 74%
Efficiency (uptake of Cy-5 labelled PNA) (STEM [24]): 88%
effect on cell cycle progression (cultured cells): no effect

Compound: COc1cccc2c1C(=O)c1c(O)c3c(c(O)c1C2=O)C[C@@](O)(C(=O)CO)C[C@@H]3O[C@H]1C[C@H](N)[C@H](O)[C@H](C)O1 [Doxo, doxorubicin]
IC50 (SKB3): 600 nM
IC50 (MCF7 [25]; drug complexed with VEPEP-9a at molar ratio 1/20, read-out: VEPEP-9a IC50): 100 nM
IC50 (MCF7 [25]; drug complexed with VEPEP-9f at molar ratio 1/20, read-out: VEPEP-9f IC50): 700 nM
IC50 (MCF7 [25]; drug complexed with VEPEP-9d at molar ratio 1/20, read-out: VEPEP-9d IC50): 170 nM
survival time [26]: 16 days
